Source: ChEMBL document CHEMBL1201862, “PubChem BioAssay data set” (2004)
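Five compound concentrations were applied to cells in 96-well plates for 48 hours; endpoints were derived by simple linear interpolation of the resulting dose-response curve. GI50: concentration for 50% inhibition of growth.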 Active and inactive are the calls of the source. Rule as the data show it: active = GI50 up to about 1.1 µM and inactive = higher.

Columns and labels:
Experiment in all cases: DTP human tumour cell line panel, 48 h
[1] = tested on: SR
[2] = tested on: KM12
[3] = tested on: M19-MEL
[4] = tested on: BT-549
[5] = tested on: DMS-114
[6] = tested on: HOP-62
[7] = tested on: RXF 393
[8] = tested on: K562
[9] = tested on: DMS-273
[10] = tested on: NCI/ADR-RES
[11] = tested on: MCF7
[12] = tested on: NCI-H23
[13] = tested on: A549
[14] = tested on: SF-268
[15] = tested on: Hs-578T
[16] = tested on: XF498
[17] = tested on: CAKI-1
[18] = tested on: M14
[19] = tested on: COLO 205
[20] = tested on: HCT-116
[21] = tested on: OVCAR-3
[22] = tested on: SK-MEL-2
[23] = tested on: MDA-N
[24] = tested on: NCI-H522
[25] = tested on: DLD-1
[26] = tested on: SK-MEL-5
[27] = tested on: 786-0
[28] = tested on: MOLT-4
[29] = tested on: HCC 2998
[30] = tested on: HOP-18
[31] = tested on: A498
[32] = tested on: UO-31
[33] = tested on: SNB-78
[34] = tested on: SN12C
[35] = tested on: T47D
[36] = tested on: LOX IMVI
[37] = tested on: OVCAR-4
[38] = tested on: Malme-3M
[39] = tested on: HL-60
[40] = tested on: U-251
[41] = tested on: SW-620
[42] = tested on: IGROV-1
[43] = tested on: SK-MEL-28
[44] = tested on: SNB-75
[45] = tested on: HCT-15
[46] = tested on: NCI-H226
[47] = tested on: HOP-92
[48] = tested on: HT-29
[49] = tested on: SK-OV-3
[50] = tested on: EKVX
[51] = tested on: OVCAR-8
[52] = tested on: NCI-H460
[53] = tested on: LXFL 529
[54] = tested on: ACHN
[55] = tested on: RPMI-8226
[56] = tested on: PC-3
[57] = tested on: UACC-257
[58] = tested on: SF-539
[59] = tested on: OVCAR-5
[60] = tested on: TK-10
[61] = tested on: MDA-MB-435
[62] = tested on: MDA-MB-231
[63] = tested on: DU-145
[64] = tested on: SNB-19
[65] = tested on: KM-20L2
[66] = tested on: CCRF-CEM
[67] = tested on: UACC-62
[68] = tested on: SF-295
[69] = tested on: RXF 631

O=[N+]([O-])c1ccccc1S(=O)(=O)c1ccccc1[N+](=O)[O-]
GI50 [1]: > 100 µM (inactive) | GI50 [2]: > 72.3 µM (inactive) | GI50 [3]: > 100 µM (inactive) | GI50 [4]: 65.9 µM (inactive) | GI50 [5]: > 90.2 µM (inactive) | GI50 [6]: 34.9 µM (inactive) | GI50 [7]: 39.5 µM (inactive) | GI50 [8]: > 100 µM (inactive) | GI50 [9]: > 100 µM (inactive) | GI50 [10]: > 100 µM (inactive) | GI50 [11]: > 100 µM (inactive) | GI50 [12]: 74.5 µM (inactive) | GI50 [13]: > 56.2 µM (inactive) | GI50 [14]: 31.7 µM (inactive) | GI50 [15]: 32.4 µM (inactive) | GI50 [16]: 30.7 µM (inactive) | GI50 [17]: > 100 µM (inactive) | GI50 [18]: > 100 µM (inactive) | GI50 [19]: > 100 µM (inactive) | GI50 [20]: > 100 µM (inactive) | GI50 [21]: > 100 µM (inactive) | GI50 [22]: > 100 µM (inactive) | GI50 [23]: > 100 µM (inactive) | GI50 [24]: > 67.6 µM (inactive) | GI50 [25]: > 100 µM (inactive) | GI50 [26]: > 56.2 µM (inactive) | GI50 [27]: 64.6 µM (inactive) | GI50 [28]: > 100 µM (inactive) | GI50 [29]: > 100 µM (inactive) | GI50 [30]: > 83.2 µM (inactive) | GI50 [31]: > 87.7 µM (inactive) | GI50 [32]: > 82.2 µM (inactive) | GI50 [33]: 16.4 µM (inactive) | GI50 [34]: > 100 µM (inactive) | GI50 [35]: > 100 µM (inactive) | GI50 [36]: > 100 µM (inactive) | GI50 [37]: > 100 µM (inactive) | GI50 [38]: > 100 µM (inactive) | GI50 [39]: > 100 µM (inactive) | GI50 [40]: 28.9 µM (inactive) | GI50 [41]: > 56.2 µM (inactive) | GI50 [42]: > 84.7 µM (inactive) | GI50 [43]: > 100 µM (inactive) | GI50 [44]: 21 µM (inactive) | GI50 [45]: > 100 µM | GI50 [46]: > 79.3 µM (inactive) | GI50 [47]: 32.4 µM (inactive) | GI50 [48]: > 100 µM (inactive) | GI50 [49]: > 90.8 µM (inactive) | GI50 [50]: > 56.2 µM (inactive) | GI50 [51]: > 56.2 µM (inactive) | GI50 [52]: > 100 µM (inactive) | GI50 [53]: > 100 µM (inactive) | GI50 [54]: > 90.8 µM (inactive) | GI50 [55]: > 92.7 µM (inactive) | GI50 [56]: > 100 µM (inactive) | GI50 [57]: > 100 µM (inactive) | GI50 [58]: 54.8 µM (inactive) | GI50 [59]: > 10 µM (inactive) | GI50 [60]: 53.7 µM (inactive) | GI50 [61]: > 100 µM (inactive) | GI50 [62]: > 60.7 µM (inactive) | GI50 [63]: > 100 µM (inactive) | GI50 [64]: 56.8 µM (inactive) | GI50 [65]: > 100 µM (inactive) | GI50 [66]: > 100 µM (inactive) | GI50 [67]: > 100 µM (inactive) | GI50 [68]: 36.9 µM (inactive)

Cc1ccc(N2C(=O)C(=CN)C(=O)N(c3ccc(C)cc3)C2=O)cc1
GI50 [1]: > 100 µM (inactive) | GI50 [2]: > 100 µM (inactive) | GI50 [3]: > 100 µM (inactive) | GI50 [6]: 44.2 µM (inactive) | GI50 [7]: 91.6 µM (inactive) | GI50 [8]: > 100 µM (inactive) | GI50 [69]: > 100 µM (inactive) | GI50 [9]: > 100 µM (inactive) | GI50 [12]: > 100 µM (inactive) | GI50 [13]: > 100 µM (inactive) | GI50 [14]: > 100 µM (inactive) | GI50 [17]: 31.8 µM (inactive) | GI50 [18]: > 100 µM (inactive) | GI50 [19]: > 100 µM (inactive) | GI50 [20]: > 100 µM (inactive) | GI50 [21]: 65.9 µM (inactive) | GI50 [22]: 66.8 µM (inactive) | GI50 [24]: > 100 µM (inactive) | GI50 [25]: 46.8 µM (inactive) | GI50 [26]: > 100 µM (inactive) | GI50 [27]: > 100 µM (inactive) | GI50 [28]: > 100 µM (inactive) | GI50 [29]: 10 µM (inactive) | GI50 [30]: > 100 µM (inactive) | GI50 [31]: 84.9 µM (inactive) | GI50 [32]: 53.5 µM (inactive) | GI50 [33]: > 100 µM (inactive) | GI50 [34]: 51.6 µM (inactive) | GI50 [36]: > 100 µM (inactive) | GI50 [37]: > 100 µM (inactive) | GI50 [38]: 47.6 µM (inactive) | GI50 [39]: > 100 µM (inactive) | GI50 [40]: 10 µM (inactive) | GI50 [41]: > 100 µM (inactive) | GI50 [42]: 71.9 µM (inactive) | GI50 [43]: > 100 µM (inactive) | GI50 [44]: 13.3 µM (inactive) | GI50 [45]: 62.1 µM | GI50 [46]: > 100 µM (inactive) | GI50 [47]: 31.1 µM (inactive) | GI50 [48]: > 100 µM (inactive) | GI50 [49]: 19.2 µM (inactive) | GI50 [50]: > 100 µM (inactive) | GI50 [51]: > 100 µM (inactive) | GI50 [52]: > 100 µM (inactive) | GI50 [53]: > 100 µM (inactive) | GI50 [54]: 37.9 µM (inactive) | GI50 [57]: > 100 µM (inactive) | GI50 [58]: > 100 µM (inactive) | GI50 [59]: > 100 µM (inactive) | GI50 [60]: 48.4 µM (inactive) | GI50 [64]: > 100 µM (inactive) | GI50 [65]: > 100 µM (inactive) | GI50 [66]: 89.9 µM (inactive) | GI50 [67]: 68.9 µM (inactive) | GI50 [68]: > 100 µM (inactive)
